We go through 19 molecules from PubChem BioAssay (NCI).

Test systems include K-562 leukemia; HOP-62 NSCLC; MDA-N; DU-145 prostate; SNB-19 CNS; A498 renal; SK-MEL-2 melanoma; OVCAR-5 ovarian; CAKI-1 renal; RPMI-8226 leukemia; SR leukemia.
What all share (assay): inhibition of tumour cell growth, NCI panel, 48 h

Structures are written as SMILES.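 Each compound was tested at five concentrations against cells in 96-well plates for 48 hours. Definition used: TGI = concentration required for complete inhibition of growth.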 Some results are limits rather than exact numbers.

With `CCOC(=O)C(NC(=O)c1ccccc1)(Nc1ccc(Cl)cc1C(F)(F)F)C(F)(F)F` (stereo not drawn), the TGI in the assay on K-562 leukemia was above 26.7 µM; in the assay with HOP-62 NSCLC it was 31.8 µM; in the assay on MDA-N it was 3.69 µM; with DU-145 prostate, above 100 µM; in the assay with SNB-19 CNS it was above 100 µM; in the assay with A498 renal, 47.1 µM. Besides, the TGI with SK-MEL-2 melanoma is above 45.1 µM; in the assay on OVCAR-5 ovarian, above 100 µM; in the assay with CAKI-1 renal, above 55.7 µM; in the assay with RPMI-8226 leukemia, above 100 µM; with SR leukemia it was above 24 µM.

In the case of `COc1cc2c(cc1OC)C(=O)/C(=C/c1cc(OC)c(OC)c(OC)c1)C2`, the TGI with K-562 leukemia, in the assay on HOP-62 NSCLC, in the assay on MDA-N, with DU-145 prostate, in the assay with SNB-19 CNS and in the assay on A498 renal was above 100 µM each time. In addition, the TGI with SK-MEL-2 melanoma, in the assay with OVCAR-5 ovarian, in the assay with CAKI-1 renal, in the assay on RPMI-8226 leukemia and in the assay on SR leukemia was above 100 µM in each case.

On to `CC1CCC2(CC1)NC1=C(CC(C)CC1)C1=C2CC(C)CC1` (stereo not drawn), for which the TGI is 42.9 µM in the assay with K-562 leukemia; above 100 µM in the assay with MDA-N; above 100 µM in the assay with DU-145 prostate; 78.2 µM in the assay on SNB-19 CNS; above 100 µM in the assay with A498 renal; 57.8 µM with SK-MEL-2 melanoma. Also, the TGI in the assay on OVCAR-5 ovarian stood at 57.9 µM; in the assay on CAKI-1 renal, 54.5 µM; in the assay on RPMI-8226 leukemia, 55.6 µM; in the assay with SR leukemia, 55.8 µM.

For `COC(=O)[C@H](Cc1ccc(OC(C)(C)C)cc1)N[C@H](C)C(=O)N[C@@H](Cc1ccccc1)C(=O)OCc1ccccc1`, the TGI was 63.5 µM with K-562 leukemia; above 100 µM in the assay with HOP-62 NSCLC; above 100 µM with MDA-N; above 100 µM in the assay with DU-145 prostate; above 100 µM in the assay with SNB-19 CNS; above 100 µM in the assay with A498 renal. Also, the TGI with OVCAR-5 ovarian is above 100 µM; in the assay on CAKI-1 renal, above 100 µM; in the assay on RPMI-8226 leukemia it was above 100 µM; in the assay with SR leukemia, 70.5 µM.

As for `COC(=O)/C=C/C1(O)C=CC(=O)C=C1`, the TGI with K-562 leukemia is above 100 µM; with HOP-62 NSCLC it was 14.4 µM; with MDA-N it was 4.5 µM; with DU-145 prostate, 9.57 µM; in the assay with SNB-19 CNS it was 18.1 µM; in the assay with A498 renal, above 60.2 µM. Also, the TGI was 19.1 µM in the assay on SK-MEL-2 melanoma; 12 µM in the assay with OVCAR-5 ovarian; 4.46 µM in the assay with CAKI-1 renal; above 100 µM with RPMI-8226 leukemia; 10.7 µM with SR leukemia.

Turning to `COC(=O)[C@H](CC(C)C)Nc1c(O)c2c(c(O)c1Cl)C(=O)C=CC2=O`, the TGI with K-562 leukemia, in the assay on HOP-62 NSCLC, with MDA-N, with DU-145 prostate, with SNB-19 CNS and with A498 renal was above 10 µM in each case. Besides, the TGI in the assay on SK-MEL-2 melanoma, with OVCAR-5 ovarian, in the assay with CAKI-1 renal, in the assay on RPMI-8226 leukemia and with SR leukemia was above 10 µM throughout.

Regarding `CC(=O)OC12c3ccccc3-c3ccccc3C1C1C(=O)OC(=O)C12` (stereo not drawn), the TGI in the assay on K-562 leukemia, with HOP-62 NSCLC, with MDA-N, with DU-145 prostate, with SNB-19 CNS and in the assay on A498 renal was above 10 µM in each case. Further, the TGI with SK-MEL-2 melanoma, with OVCAR-5 ovarian, with CAKI-1 renal, in the assay on RPMI-8226 leukemia and in the assay with SR leukemia was above 10 µM throughout.

For `CCOC(=O)C(=O)/C(=C/N1C(=O)CC(=O)NC1=S)C(=O)OCC`, the TGI in the assay with K-562 leukemia, in the assay with HOP-62 NSCLC, in the assay with MDA-N, in the assay on DU-145 prostate, in the assay on SNB-19 CNS and with A498 renal was above 100 µM each time. Further, the TGI in the assay on SK-MEL-2 melanoma, in the assay with OVCAR-5 ovarian, with CAKI-1 renal, with RPMI-8226 leukemia and in the assay with SR leukemia was above 100 µM in each case.

As to `O=C(CNC(c1ccccc1)(c1ccccc1)c1ccccc1)NC1CCCCC1NC(=O)CNC(c1ccccc1)(c1ccccc1)c1ccccc1` (stereo not drawn), the TGI was above 100 µM in the assay with K-562 leukemia; 91.6 µM in the assay on HOP-62 NSCLC; above 100 µM with MDA-N; above 100 µM in the assay on DU-145 prostate; above 100 µM in the assay on SNB-19 CNS; above 100 µM with A498 renal. For the same molecule, the TGI in the assay with SK-MEL-2 melanoma, in the assay with OVCAR-5 ovarian, in the assay on CAKI-1 renal, with RPMI-8226 leukemia and in the assay on SR leukemia was above 100 µM throughout.

Turning to `O=C1C=CC(=O)c2c1ccc1c3ccccc3n(Cc3cccc([N+](=O)[O-])c3)c21`, the TGI with K-562 leukemia was above 59.9 µM; in the assay with HOP-62 NSCLC it was above 100 µM; with MDA-N, 26.3 µM; in the assay with DU-145 prostate, above 100 µM; with SNB-19 CNS, above 100 µM; in the assay on A498 renal, above 100 µM. The TGI in the assay on SK-MEL-2 melanoma was above 100 µM; in the assay with OVCAR-5 ovarian, above 100 µM; with CAKI-1 renal, 31 µM; with RPMI-8226 leukemia, above 55.8 µM; with SR leukemia, above 32.6 µM.

In the case of `CC1C(OC2O[C@@H]3O[C@@]4(C)CC[C@H]5[C@H](C)CC[C@@H](C2C)[C@@]35O4)O[C@@H]2O[C@@]3(C)CC[C@H]4[C@H](C)CC[C@@H]1[C@@]24O3` (stereo partly drawn), the TGI in the assay on K-562 leukemia, with HOP-62 NSCLC, in the assay with MDA-N, in the assay with DU-145 prostate, in the assay on SNB-19 CNS and in the assay with A498 renal was above 50 µM in each case. The TGI in the assay with SK-MEL-2 melanoma, in the assay on OVCAR-5 ovarian, with CAKI-1 renal, in the assay with RPMI-8226 leukemia and with SR leukemia was above 50 µM in each case.

`O=C(C/C(=N/O)c1cc(-c2ccccc2)no1)c1ccccc1`: the TGI in the assay on K-562 leukemia is above 100 µM; with HOP-62 NSCLC, 40.2 µM; in the assay with MDA-N it was above 100 µM; in the assay on DU-145 prostate it was above 100 µM; in the assay with SNB-19 CNS, 73.3 µM; in the assay on A498 renal it was above 100 µM. The TGI in the assay on SK-MEL-2 melanoma, in the assay on OVCAR-5 ovarian, in the assay on CAKI-1 renal, with RPMI-8226 leukemia and in the assay with SR leukemia was above 100 µM throughout.

On to `C/C(=N\Nc1nc2cccnc2s1)c1ccccn1`, for which the TGI was above 100 µM in the assay on K-562 leukemia; above 100 µM with MDA-N; above 100 µM in the assay on DU-145 prostate; above 87 µM in the assay on SNB-19 CNS; above 100 µM in the assay with A498 renal; above 34.6 µM in the assay with SK-MEL-2 melanoma. Also, the TGI was above 64.4 µM in the assay on OVCAR-5 ovarian, 12.2 µM in the assay with CAKI-1 renal, above 100 µM in the assay with RPMI-8226 leukemia and above 100 µM with SR leukemia.

`O=C1C=C(OCCCCl)C(=O)c2c(O)ccc(O)c21`: the TGI with K-562 leukemia stood at 5.86 µM; in the assay on HOP-62 NSCLC, 2.75 µM; with MDA-N it was 0.349 µM; with DU-145 prostate it was 0.863 µM; in the assay with SNB-19 CNS, 3.55 µM; with A498 renal, 3.57 µM. For the same molecule, the TGI in the assay with SK-MEL-2 melanoma amounted to 2.43 µM; with OVCAR-5 ovarian it was 2.85 µM; in the assay with CAKI-1 renal, 3.4 µM; in the assay on RPMI-8226 leukemia it was 6.01 µM; with SR leukemia it was 3.52 µM.

Take `COc1ccc2cc(-c3nc(N)nc(N4N=C(C)CC4(C)C)n3)c(=N)oc2c1`: the TGI turned out to be 40.2 µM in the assay on K-562 leukemia; 41.6 µM in the assay on HOP-62 NSCLC; 33.5 µM in the assay on MDA-N; 32.6 µM with DU-145 prostate; 40.1 µM with SNB-19 CNS; 82.1 µM in the assay on A498 renal. In addition, the TGI stood at 35.7 µM in the assay with SK-MEL-2 melanoma; 41.3 µM in the assay on OVCAR-5 ovarian; 38 µM with CAKI-1 renal; 36.6 µM in the assay on RPMI-8226 leukemia; 32.1 µM with SR leukemia.

`CCN(CC)CCNc1ccc2nnn3c4ccc(O)cc4c(=O)c1c23`: the TGI with K-562 leukemia came out at 30.6 µM; with HOP-62 NSCLC it was 14 µM; in the assay on MDA-N, 17.5 µM; in the assay on DU-145 prostate, 27.6 µM; in the assay on SNB-19 CNS it was 22.2 µM; in the assay on A498 renal it was 16 µM. Also, the TGI stood at 25.2 µM in the assay on SK-MEL-2 melanoma; 22.4 µM in the assay with OVCAR-5 ovarian; 13.4 µM in the assay on CAKI-1 renal; 19.8 µM with RPMI-8226 leukemia; 1.48 µM in the assay on SR leukemia.

As for `COC(=O)C1=C(C(=O)OC)SC2(S1)C(C(=O)OC)=C(C(=O)OC)Sc1c2ssc1=Nc1ccc(Cl)cc1`, the TGI in the assay on K-562 leukemia turned out to be 5.78 µM; with HOP-62 NSCLC it was 3.36 µM; in the assay with MDA-N it was 1.69 µM; in the assay on DU-145 prostate it was 1.65 µM; in the assay with SNB-19 CNS it was 2.95 µM; in the assay on A498 renal, 3.15 µM. The TGI came to 1.36 µM with SK-MEL-2 melanoma, 2.81 µM in the assay with OVCAR-5 ovarian, 2.21 µM in the assay on CAKI-1 renal and 1.73 µM in the assay on SR leukemia.

As for `Cc1nnc(N)nc1/C=C/c1c(O)ccc2ccccc12`, the TGI in the assay on K-562 leukemia is above 100 µM; in the assay on HOP-62 NSCLC, above 100 µM; in the assay on MDA-N, above 100 µM; in the assay with DU-145 prostate, above 100 µM; with SNB-19 CNS it was above 100 µM; in the assay with A498 renal, 47.1 µM. Further, the TGI with SK-MEL-2 melanoma was 35.5 µM; in the assay on OVCAR-5 ovarian, 78.7 µM; in the assay on CAKI-1 renal, above 100 µM; in the assay with RPMI-8226 leukemia, above 100 µM; in the assay with SR leukemia it was above 100 µM.

Take `CCOC1Oc2ccccc2-c2nc(SC)ncc21` (stereo not drawn): the TGI in the assay with MDA-N, in the assay with DU-145 prostate, in the assay on SNB-19 CNS, with A498 renal, in the assay on SK-MEL-2 melanoma and in the assay on OVCAR-5 ovarian was above 100 µM in each case. In addition, the TGI in the assay on CAKI-1 renal, in the assay on RPMI-8226 leukemia and with SR leukemia was above 100 µM in each case.
